# Marks after values point to notes of the source that are not given here.
# How the values were obtained:
# [1] = system: Ehrlich ascites carcinoma; assay: Preventive effect against the growth of Ehrlich ascites tumor (method A); assay type: in vivo, mice; settings: for Therapeutic index: M. T. D./M. E. D.; for inhibition in vivo at 0.097 mg/kg/day: dose 0.097 mg/kg/day i.p. x 5 days; for inhibition in vivo at 0.195 mg/kg/day: dose 0.195 mg/kg/day i.p. x 5 days; for inhibition in vivo at 0.39 mg/kg/day: dose 0.39 mg/kg/day i.p. x 5 days; for inhibition in vivo at 1.56 mg/kg/day: dose 1.56 mg/kg/day i.p. x 5 days; for inhibition in vivo at 6.25 mg/kg/day: dose 6.25 mg/kg/day i.p. x 5 days; for minimal effective dose: minimum effective dose which shows 100% inhibition for the growth of the ascites tumor, dose column in mg/kg/day, read-out: MED; for Toxic: group of five mice; for inhibition in vivo at 3.12 mg/kg/day: dose 3.12 mg/kg/day i.p. x 5 days; for inhibition in vivo at 12.5 mg/kg/day: dose 12.5 mg/kg/day i.p. x 5 days; for inhibition in vivo at 0.19 mg/kg/day: dose 0.19 mg/kg/day i.p. x 5 days; for inhibition in vivo at 0.78 mg/kg/day: dose 0.78 mg/kg/day i.p. x 5 days
# Experimental: (§1) (A) Preventive effect against the growth of Ehrlich ascites tumor:
# (§2) 10^6 tumor cells of Ehrlich ascites carcinoma were inoculated intraperitoneally into a group of five female mice (ICR mice, body weight: 19-23 g). A test compound was dissolved in a physiological saline solution. (In the case where CCNU was employed as the test compound, said compound was suspended in a physiological saline solution containing 0.1% NIKKOL HCO-60 (trademark; a surface active agent manufactured by Nikko Chemicals Co. Ltd.)) and administered intraperitoneally to the mice. The administration of the test compound was begun 24 hours after the inoculation of the tumor cells and performed once a day for 5 days. The volume of ascites in the treated mice were measured after 7 days of the experiment.
# [2] = as above; assay type: in vivo, mice; settings: mouse, in vivo, ip; Maximum Tolerated Dose: maximum dose with 100% inhibition of Ehrlich ascites tumor growth without death of mice; dose column in mg/kg/day
# Experimental: as §1, §2
# leukemic cells of L-1210 = assay: Effect on the life span of mice implanted with leukemic cells of L-1210 (method B); assay type: in vivo; settings: for ILS (%): Increase in Life Span; for 60-day survivors: mice survived for 60 days/mice used
# Experimental: (B) Effect on the life span of mice implanted with leukemic cells of L-1210:
# 10^5 leukemic cells of L-1210were inoculated intraperitoneally into a group of four male mice (BDF1 mice, body weight: 19-23 g). A test compound was dissolved in a physiological saline solution and administered intraperitoneally to the mice. The administration of the test compound was begun 24 hours after the inoculation of the leukemic cells and performed once a day for 5 days. The survival days of the treated mice were observed.
# tumor = assay: Anti-tumor activity compared with a compound of the invention (no method given); settings: compared with a respective comparative compound according to the invention
# [3] = Mus musculus, Ehrlich, ip, 168 h, read-out: Inhibition ratio (%)
# [4] = Mus musculus, Ehrlich, ip, 168 h, dose 25 mg/kg/day i.p. x 5 days, read-out: Inhibition ratio (%)
# [5] = Mus musculus, Ehrlich, ip, 168 h
# [6] = dose 50 mg/kg/day i.p. x 5 days
# [7] = dose 6.25 mg/kg/day i.p. x 5 days
# [8] = dose 12.5 mg/kg/day i.p. x 5 days
# [9] = dose 25 mg/kg/day i.p. x 5 days
# [10] = T (treated mice), dose 6.25 mg/kg/day i.p. x 5 days
# [11] = T (treated mice), dose 12.5 mg/kg/day i.p. x 5 days
# [12] = T (treated mice; figure after the slash is untreated control C), dose 25 mg/kg/day i.p. x 5 days
# [13] = Mus musculus, Ehrlich, ip, 168 h, dose 50 mg/kg/day i.p. x 5 days, read-out: Inhibition ratio (%)
# [14] = dose 100 mg/kg/day i.p. x 5 days
# [15] = dose 1.56 mg/kg/day i.p. x 5 days
# [16] = dose 3.12 mg/kg/day i.p. x 5 days
# [17] = T (treated mice), dose 3.12 mg/kg/day i.p. x 5 days
SMILES,Therapeutic index [1],"inhibition in vivo at 0.097 mg/kg/day [1, 3] [%]","inhibition in vivo at 0.195 mg/kg/day [1, 3] [%]","inhibition in vivo at 0.39 mg/kg/day [1, 3] [%]","inhibition in vivo at 1.56 mg/kg/day [1, 3] [%]","inhibition in vivo at 6.25 mg/kg/day [1, 3] [%]","inhibition in vivo at 25 mg/kg/day [1, 4] [%]","minimal effective dose [1, 5] [mg/kg/day]","Toxic [1, 6]",MTD at 168 h [2] [mg/kg/day],ILS (%) (leukemic cells of L-1210; [7]),ILS (%) (leukemic cells of L-1210; [8]),Mean survival days (T/C) (leukemic cells of L-1210; [10]),Mean survival days (T/C) (leukemic cells of L-1210; [11]),60-day survivors (leukemic cells of L-1210; [7]),60-day survivors (leukemic cells of L-1210; [8]),"inhibition in vivo at 3.12 mg/kg/day [1, 3] [%]","inhibition in vivo at 12.5 mg/kg/day [1, 3] [%]","inhibition in vivo at 0.78 mg/kg/day [1, 3] [%]",other results
"COCCN(C(=O)N(CCCl)N=O)[C@@H]1[C@@H](O)[C@@H](OC)O[C@H](CO)[C@H]1O [Compound 6, 1 - (2 - chloroethyl) - 1 - nitroso - 3 - (2 - methoxyethyl) - 3 - (methyl 3 - deoxy - a - D - glucopyranosid - 3 - yl)urea]",128,0,100,100,100,100,100,0.195,Toxic (2/5)*,25,,,,,,,,,,
"C=CCN(C(=O)N(CCCl)N=O)[C@@H]1[C@@H](O)[C@@H](OC)O[C@H](CO)[C@H]1O [Compound 4, 1 - (2 - chloroethyl) -1 - nitroso - 3 - allyl - 3 - (methyl 3 - deoxy - α - D - glucopyranosid - 3 - yl)urea]",128,29.7,100,100,100,100,100,0.195,Toxic (3/5)*,25,80.2,>597.7,15.5/8.6 days,>60.0/8.6 days,0/4,4/4,,,,ILS (%) (leukemic cells of L-1210; [9]): >496.5%; Mean survival days (T/C) (leukemic cells of L-1210; [12]): >51.3/8.6 days; 60-day survivors (leukemic cells of L-1210; [9]): 3/4
O=C(NCCCl)N[C@H]1[C@H](O)[C@@H](CO)OC(O)[C@@H]1O (stereo partly drawn) [3 - [3 - (2 - chloroethyl)ureido] - 3 - deoxy - D - glucopyranose],,,,,,,,,,,,,,,,,,,,anti-tumor activity (tumor): lower anti-tumor activity
"O=NN(CCCl)C(=O)NC1CCCCC1 [CCNU, 1-(2-chloroethyl)-1-nitroso-3-cyclohexylurea, reference compound]",4,,,,,33.3,,12.5,,,,,,,,,21.1,100,,"inhibition in vivo at 50 mg/kg/day [1, 13]: 100%; Toxic [1, 14]: Toxic (5/5)*"
"CCCCN(C(=O)N(CCCl)N=O)[C@@H]1[C@@H](O)[C@@H](OC)O[C@H](CO)[C@H]1O [Compound 1, 1 - (2 - chloroethyl) - 1 - nitroso - 3 - n - butyl - 3 - (methyl 3 - deoxy - a - D - glucopyranosid - 3 - yl)urea]",64,,,59.5,,,,0.78,,50,111.3,>745.1,15.0/7.1 days,>60.0/7.1 days,0/4,4/4,100,100,100,"ILS (%) (leukemic cells of L-1210; [9]): >745.1%; Mean survival days (T/C) (leukemic cells of L-1210; [12]): >60.0/7.1 days; 60-day survivors (leukemic cells of L-1210; [9]): 4/4; inhibition in vivo at 0.19 mg/kg/day [1, 3]: 14.3%; inhibition in vivo at 50 mg/kg/day [1, 13]: 100%; Toxic [1, 14]: Toxic (4/5)*"
"C#CCN(C(=O)N(CCCl)N=O)[C@@H]1[C@@H](O)[C@@H](OC)O[C@H](CO)[C@H]1O [Compound 5, 1 - (2 - chloroethyl) - 1 - nitroso - 3 - propargyl - 3 - (methyl 3 - deoxy - a - D - glucopyranosid - 3 - yl)urea]",32,,,35.1,100,100,100,0.78,Toxic (1/5)*,25,,,,,,,,,100,
"O=NN(CCCl)C(=O)N[C@@H]1O[C@H](CO)[C@@H](O)[C@H](O)[C@H]1O [GANU, 1-(2-chloroethyl)-1-nitroso-3-β-(D-glucopyranosyl)urea, reference compound]",32,,,100,,,,0.39,,12.5,,,,,,,100,100,100,"inhibition in vivo at 0.09 mg/kg/day ([1]; Mus musculus, Ehrlich, ip, 168 h, dose 0.09 mg/kg/day i.p. x 5 days, read-out: Inhibition ratio (%)): 4.2%; inhibition in vivo at 0.19 mg/kg/day [1, 3]: 79.2%; Toxic [1, 9]: Toxic (5/5)*"
"CO[C@H]1O[C@H](CO)[C@@H](O)[C@H](N(C)C(=O)N(CCCl)N=O)[C@H]1O [Compound 3, 1 - (2 - chloroethyl) - 1 - nitroso - 3 - methyl - 3 - (methyl 3 - deoxy - a - D - glucopyranosid - 3 - yl)urea]",64,2.7,81.1,100,100,100,100,0.39,Toxic (1/5)*,25,>614.3,>614.3,>60.0/8.4 days,>60.0/8.4 days,4/4,4/4,,,,"ILS (%) (leukemic cells of L-1210; [15]): 70.2%; ILS (%) (leukemic cells of L-1210; [16]): >361.9%; Mean survival days (T/C) (leukemic cells of L-1210; T (treated mice), dose 1.56 mg/kg/day i.p. x 5 days): 14.3/8.4 days; Mean survival days (T/C) (leukemic cells of L-1210; [17]): >38.8/8.4 days; increase in the average life span (leukemic cells of L-1210; daily dose of 0.26 mg/kg intraperitoneally for five consecutive days): about 30%; 60-day survivors (leukemic cells of L-1210; [15]): 0/4; 60-day survivors (leukemic cells of L-1210; [16]): 2/4"
"CO[C@H]1O[C@H](CO)[C@@H](O)[C@H](N(CC(C)C)C(=O)N(CCCl)N=O)[C@H]1O [Compound 2, 1 - (2 - chloroethyl) - 1 - nitroso - 3 - isobutyl - 3 - (methyl 3 - deoxy - a - D - glucopyranosid - 3 - yl)urea]",128,8.1,100,100,100,100,100,0.195,Toxic (1/5)*,25,>597.7,>597.7,>60.0/8.6 days,>60.0/8.6 days,4/4,4/4,,,,ILS (%) (leukemic cells of L-1210; [16]): 57.0%; Mean survival days (T/C) (leukemic cells of L-1210; [17]): 13.5/8.6 days; 60-day survivors (leukemic cells of L-1210; [16]): 0/4
